Here are results for 2 molecules from patent US12274785B2, “Sustained-release pharmaceutical compositions comprising an immunomodulating agent and uses thereof” (TAIWAN LIPOSOME CO., LTD., priority 2018, dated 2025).

Structures can show the parent of a compound that is named as a salt. Some results are limits rather than exact numbers.

Series [1] in a line: Drug loading of liposomes: drug to lipid molar ratio and encapsulation efficiency (UV/Vis). The series is classed as physicochemical. The method, then: (§1) Empty liposomes were prepared by a lipid film hydration-extrusion method. HSPC, cholesterol, and DSPE-PEG2000 (mole percent 59.5/39.6/0.9) were dissolved in chloroform and a thin lipid film was formed by removing the organic solvent under vacuum in a rotary evaporator. The dry lipid film was hydrated in 300 mM ammonium sulfate at 60° C. for 30 min and the empty liposomes were formed with ammonium sulfate encapsulated in the aqueous core. After six freeze-thaw cycles between liquid nitrogen and water at 60° C., the empty liposomes were subsequently extruded ten times through polycarbonate filter membranes with a pore size of 0.2 μm. Unencapsulated ammonium sulfate was removed by dialysis against a 9.4% sucrose solution.
(§2) A reaction mixture containing 7.8 mg/mL of fingolimod hydrochloride (MedChem Express), 20.7 mM of lipids of empty liposomes and 50 mM histidine buffer (pH 7) was incubated at 60° C. for 15 min. The unencapsulated fingolimod hydrochloride was separated by a Sephadex™ G-50 Fine gel (GE Healthcare) or dialysis bag (Spectrum Labs) against a 9.4% sucrose solution to obtain the liposomal fingolimod formulation. The concentrations of the encapsulated fingolimod hydrochloride and the lipid of the liposomal fingolimod formulation were measured using an ultraviolet/visible (UV/Vis) spectrophotometer to calculate the drug to lipid molar ratio (D/L) of the liposomal fingolimod formulation.
(§3) The encapsulation efficiency was calculated by the drug to lipid molar ratio (D/L) of the fingolimod hydrochloride encapsulated liposomes compared to the nominal D/L of reaction mixture, which was calculated by dividing the concentration of fingolimod hydrochloride by the lipid concentration of empty liposome. The particle size distribution was measured by a dynamic light scattering instrument (Zetasizer Nano-ZS90, Malvern).
as §1, with “DPPG” for “DSPE-PEG2000”
as §2, with “7.2” for “7.8”, “ozanimod (DC Chemicals), 20.6” for “fingolimod hydrochloride (MedChem Express), 20.7”, “6.5)” for “7)”, “ozanimod” for “fingolimod hydrochloride”, “ozanimod” for “fingolimod”
(§4) The encapsulation efficiency was calculated by the drug to lipid molar ratio (D/L) of the ozanimod encapsulated liposomes compared to the nominal D/L of reaction mixture, which was calculated by dividing the concentration of ozanimod by the lipid concentration of empty liposome. The particle size distribution was measured by a dynamic light scattering instrument (Zetasizer Nano-ZS90, Malvern).
The liposome formulations were prepared according to Example 1, with the following trapping agents: (1) 75 mM of triethylammonium sucrose octasulfate, (2) 300 mM of ammonium sulfate, (3) 200 mM ammonium phosphate and (4) 7.0 mM of dextran sulfate.

Series [2] is described as follows: Particle size distribution by dynamic light scattering. The format is physicochemical. As to the method: as §3, §4
A short description of series [3]: In vitro release through dialysis bag with fetal bovine serum. The format is physicochemical. The following applies: fetal bovine serum mixture, PBS pH 7.4 with 0.06N HCl, 37 °C. The method, then: To setup an in vitro release system, 0.5 mL of liposomal fingolimod formulation prepared according to Example 1 and 0.5 mL of free fingolimod hydrochloride were each mixed with 0.5 mL of fetal bovine serum. The free fingolimod/serum mixture and liposomal fingolimod/serum mixture were placed in separate dialysis bags (Spectra/Pro®6 dialysis membrane, MWCO 50 kDa, Spectrum Labs) and both ends of the dialysis bags were sealed. Each dialysis bag was immersed in 15 mL PBS at pH 7.4, containing 0.06N HCl, in a 50-mL centrifuge tube and incubated at 37±1° C. water bath. At designated time points after incubation (1, 2, 4, 8 and 24 hours), 0.5 mL aliquot from the 15-mL PBS was sampled and 0.5 mL of fresh PBS was added to replenish the sampling aliquot each time. Drug concentrations of the sampling aliquots at each time point were analyzed using HPLC to create the in vitro release profile of the tested formulations.

Series [4] in a line: Pharmacokinetics study of liposomal fingolimod in rats. The format is in vivo, Sprague-Dawley rats. The settings on record: IV 5 mg/Kg. The method, then:
An in vivo PK evaluation of the liposomal fingolimod formulation was performed using 7- to 8-week-old female Sprague-Dawley rats. The rats were housed in a holding room which operated on a 12-hr light/12-hr dark circadian cycle with free access to water and food.
The rats were divided into three groups (n=4 in each group), one group received intravenous (IV) injection of 5 mg/Kg of free fingolimod hydrochloride, prepared by dissolving the fingolimod hydrochloride in a 9.4% sucrose solution containing 5% dimethyl sulfoxide with a final concentration of 2.00 mg/mL. The second group received intravenous (IV) injection of 5 mg/Kg of liposomal fingolimod formulation prepared according to Example 1. The third group received subcutaneous (SC) injection of 5 mg/Kg of liposomal fingolimod formulation prepared according to Example 1. Blood samples were collected at 5, 15 min, 1, 2, 4, 8, 24, 48, 72, and 96 hours post-injection. Plasma samples were obtained by centrifugation, kept frozen at -80° C. and analyzed using a noncompartmental analysis model in PKSolver (Comput. Methods Programs Biomed. 2010; 99(3):306-314).

Series [5] in a line: Drug loading of liposomes: drug to lipid molar ratio and encapsulation efficiency (UV/Vis). The following applies: fingolimod; HSPC/cholesterol/DPPG (59.5/39.6/0.9); trapping agent 2: 300 mM ammonium sulfate. The format is physicochemical.
Setting [6] is: DMPC/cholesterol/DSPE-PEG2000 (59.5/40/0.5), trapping agent 2: 300 mM ammonium sulfate.
Where [7] appears, read: DPPC/cholesterol/DSPE-PEG2000 (55.9/38.7/5.4), trapping agent 3: 200 mM ammonium phosphate.
Setting [8] is: HSPC/cholesterol/DSPE-PEG2000 (59.5/39.6/0.9), trapping agent 1: 75 mM triethylammonium sucrose octasulfate.
[9] abbreviates: HSPC/cholesterol/DSPE-PEG2000 (59.5/39.6/0.9), trapping agent 2: 300 mM ammonium sulfate.
Setting [10] is: DSPC/cholesterol/DSPE-PEG2000 (59.5/39.6/0.9), trapping agent 4: 7.0 mM dextran sulfate.
Setting [11] is: HSPC/cholesterol (60/40), trapping agent 1: 75 mM triethylammonium sucrose octasulfate.
The mark [12] stands for this setting: ozanimod, HSPC/cholesterol/DPPG (59.5/39.6/0.9), trapping agent 2: 300 mM ammonium sulfate.

Consider `CCCCCCCCc1ccc(CCC(N)(CO)CO)cc1` [Fingolimod HCl, fingolimod hydrochloride], for which the “Encapsulation Efficiency” value is on record as 100% in series [1] (setting [6]); 99% in series [1] (setting [7]); 100% in series [1] (setting [8]); 100% in series [1] (setting [9]); 100% in series [5]. Besides, the “Purified D/L” value turned out to be 1.13 mole/mole in series [1] (setting [6]); 0.88 mole/mole in series [1] (setting [7]); 1.28 mole/mole in series [1] (setting [8]); 1.11 mole/mole in series [1] (setting [9]); 1.01 mole/mole in series [5]. Besides, the “Average Particle Size” value in series [2] (setting [6]) amounted to 154.5 nm; in series [2] (setting [7]), 143.1 nm; in series [2] (setting [8]), 288.0 nm; in series [2] (setting [9]) it was 162.1 nm; in series [2] (fingolimod, HSPC/cholesterol/DPPG (59.5/39.6/0.9), trapping agent 2: 300 mM ammonium sulfate), 191.4 nm. In addition, the “fingolimod released through the dialysis bag within 4 hours” value in series [3] (4 hours) is roughly 80%. For the same molecule, in series [3] (24 hours), the “release through the dialysis bag over 24 hours” value is reported as greater than 80%. Also, in series [4], the “time after which eliminated from the circulation” value is “about 70 hours”. In addition, in series [4] (96 hours post-injection), the AUC0-t/AUC0-inf ratio result is on record as “approximately 100%”.

Consider `CC(C)Oc1ccc(-c2nc(-c3cccc4c3CC[C@@H]4NCCO)no2)cc1C#N` [Ozanimod, ozanimod], for which the “Encapsulation Efficiency” value in series [1] (setting [10]) amounted to 79%; in series [1] (setting [11]), 100%; in series [1] (setting [12]), 100%. The “Purified D/L” value in series [1] (setting [10]) amounted to 0.35 mole/mole; in series [1] (setting [11]), 0.49 mole/mole; in series [1] (setting [12]) it was 0.87 mole/mole. In addition, the “Average Particle Size” value in series [2] (setting [10]) is 364.2 nm; in series [2] (setting [11]) it was 215.2 nm; in series [2] (setting [12]) it was 186.7 nm.
